This is an account of results in patent US20210070779A1, “BORON-CONTAINING SMALL MOLECULES AS ANTI-INFLAMMATORY AGENTS” (Anacor Pharmaceuticals, Inc., priority 2013, published 2021).

This test has as its target Human PDE4 (PDE4B2 truncated catalytic domain) (Homo sapiens, UniProt Q07343). The test can be described thus: Measurement of Phosphodiesterase 4 (PDE4) inhibition, zinc and barium precipitation method. The class given is biochemical. Here is the method: Measurement of Phosphodiesterase 4 (PDE4) Inhibition
Human PDE4 enzymatic activity was assayed using the zinc and barium precipitation method of Saldou, N. et al (1998: Cell Signal, vol 10, No. 6, pp 427-440). The assay was performed in 96-well v-bottom plates (BrandPlates, Wertheim, Germany). PDE4B2 truncated is the catalytic domain including the UCR2 and a portion of the UCR1 domain of PDE4B2 (23.4 mg/mL) from Proteros Biostructures. Final concentration of enzyme in the assay was 0.3 pM. Stocks of the tested compounds were prepared in 100% DMSO at a concentration of 40 mM. The 100-μL reaction volume consisted of 45 mM Tris-HCl, pH 7.5, 12.5 mM MgSO4, 0.3 μM […] (Sigma, St Louis, Mo.) supplemented with 0.2 μM ^3H-cAMP (Perkin Elmer, Waltham, Mass.). Compounds were pre-incubated with enzyme at room temperature for 20 min prior to initiating the reaction by adding substrate (cAMP supplemented with ^3H-cAMP). After incubation at 30° C. for 6 minutes, the reaction was stopped by the addition of 50 μL fresh made 21.5 mM ZnSO4.7H2O (Alfa Aesar, Ward Hill, Mass.) containing 5 mM AMP as a co-precipitant. Total AMP was precipitated by the addition of 50 μL 17.5 mM Ba(OH)2, prepared fresh daily in water. The precipitate was transferred and collected by filtration onto a 96-well GF/B plate (Millipore, Ireland). The plates were washed five times with cold wash solution (1 mM NaOH, 100 mM NaCl) and dried at 65° C. The bottoms of plates were sealed with clear tapes (Millipore Co-operation, Billerica, Mass.) and 40 μL of scintillation cocktail (Perkin Elmer Waltham, Mass.). The plates were top sealed and radioactivity was measured with an Elmer Packard TopCount scintillation counter.

[1] abbreviates: PDE4B2 truncated, 0.3 pM enzyme, 3H-cAMP substrate, 30° C. 6 minutes, read-out: PDE4 IC50.

Like-named read-outs stand apart in the source and are kept apart here.

Chain of Human PDE4 (PDE4B2 truncated catalytic domain) (Q07343 212-659): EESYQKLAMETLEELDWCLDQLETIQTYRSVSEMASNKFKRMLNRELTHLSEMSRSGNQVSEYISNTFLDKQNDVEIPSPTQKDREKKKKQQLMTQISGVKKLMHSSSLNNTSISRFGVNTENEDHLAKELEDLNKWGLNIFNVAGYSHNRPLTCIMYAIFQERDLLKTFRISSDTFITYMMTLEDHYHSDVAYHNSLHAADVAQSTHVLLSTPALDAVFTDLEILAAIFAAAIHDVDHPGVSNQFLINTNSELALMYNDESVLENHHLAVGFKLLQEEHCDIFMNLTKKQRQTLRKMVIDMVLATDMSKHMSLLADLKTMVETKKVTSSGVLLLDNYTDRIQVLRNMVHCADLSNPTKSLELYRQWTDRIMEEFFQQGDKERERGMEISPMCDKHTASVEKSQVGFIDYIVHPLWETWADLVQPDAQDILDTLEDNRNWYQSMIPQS

As usually defined, the IC50 is the concentration that gives 50% inhibition. As for `N#Cc1ccc(C(O)c2ccc3c(c2)COB3O)cc1` (stereo not shown) [B, 4-(hydroxy(1-hydroxy-1,3-dihydrobenzo[c][1,2]oxaborol-5-yl)methyl)benzonitrile], the IC50 under setting [1] came to 1.73 µM.

For the compound `N#Cc1ccc(C(=O)c2ccc3c(c2)COB3O)cc1` [A, 4-(1-hydroxy-1,3-dihydrobenzo[c][1,2]oxaborole-5-carbonyl)benzonitrile], inhibition was half-maximal at 0.504 µM (IC50). For the compound `N#Cc1ccc(Cc2ccc3c(c2)COB3O)cc1` [C, 4-((1-hydroxy-1,3-dihydrobenzo[c][1,2]oxaborol-5-yl)methyl)benzonitrile], under setting [1], the IC50 turned out to be 1.77 µM. Regarding `N#Cc1ccc([S+]([O-])c2ccc3c(c2)COB3O)cc1` (stereo not shown) [D, 4-(1-hydroxy-1,3-dihydrobenzo[c][1,2]oxaborol-5-ylsulfinyl)benzonitrile], under setting [1], the IC50 turned out to be 0.062 µM.
